# According to PMC12754617, “Ruthenium-enhanced curcumin derivatives target tumor growth and cancer-related inflammation in head and neck cancer models” (Frontiers in Oncology, 2025):
# Experiments:
# [1] = tested on: THP1-Blue NF-κB cells; experiment: MTT viability assay of THP1-Blue NF-κB cells; type: cell-based; conditions: concentrations of the NF-κB activity assay, overnight
# Protocol: A total of 20 μL of sterile filtered MTT (Sigma-Aldrich, Merck, Germany) solution (5 mg/mL in PBS) was added to the remaining overnight culture of THP1-Blue NF-κB cells from the above NF-κB activity assay in 96-well plates, which were incubated at 37°C (see above). After 2 h of incubation at 37°C, the supernatant was removed, and the purple formazan product generated in the cells was dissolved by the addition of 100 μL of DMSO to each well. The plates were then gently shaken for 30 s at room temperature to dissolve the precipitates. The absorbance was measured at 570 nm using an […] 200 PRO microplate reader (TECAN, Switzerland) ([43]).
# [2] = target: T1, NF-κB p65 (Homo sapiens, UniProt Q04206); experiment: Intracellular p65-NF-κB ELISA (DNA-binding activity); type: cell-based
# T1 construct: endogenous in cells; host or cells: THP1-Blue NF-κB cells
# T1 sequence (Q04206 whole entry): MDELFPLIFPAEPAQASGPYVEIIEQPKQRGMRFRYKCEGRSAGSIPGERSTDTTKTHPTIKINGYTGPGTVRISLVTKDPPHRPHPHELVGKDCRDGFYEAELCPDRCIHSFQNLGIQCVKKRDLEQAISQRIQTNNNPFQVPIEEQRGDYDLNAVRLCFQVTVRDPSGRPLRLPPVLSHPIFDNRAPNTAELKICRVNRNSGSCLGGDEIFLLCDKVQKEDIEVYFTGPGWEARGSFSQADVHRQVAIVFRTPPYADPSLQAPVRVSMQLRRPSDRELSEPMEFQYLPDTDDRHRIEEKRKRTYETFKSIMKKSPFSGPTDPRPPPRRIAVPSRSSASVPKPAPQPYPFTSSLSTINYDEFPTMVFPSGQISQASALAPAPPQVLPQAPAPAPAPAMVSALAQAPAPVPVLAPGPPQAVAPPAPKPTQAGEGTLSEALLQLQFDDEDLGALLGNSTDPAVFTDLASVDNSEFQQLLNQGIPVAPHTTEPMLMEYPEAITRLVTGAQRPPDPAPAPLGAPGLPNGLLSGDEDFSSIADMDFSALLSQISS
# From the text: To determine NF-κB p65 transcription factor levels by enzyme-linked immunosorbent assay (ELISA), an assay kit was used (Abcam, ab133112, Cambridge, UK). […] The supernatants were collected and used for the determination of intracellular p65-NF-κB by ELISA.
# In this assay, a specific double-stranded DNA (dsDNA) sequence containing the NF-κB p65 response element is immobilized onto the wells of a 96-well plate. NF-κB p65 present in the sample binds specifically to these response elements. Bound p65 is subsequently detected using a primary antibody specific for NF-κB p65, followed by a horseradish peroxidase (HRP)-conjugated secondary antibody. The relevant background values were subtracted from the measured values. Absorbance was measured at 450 nm using an […] 200 PRO microplate reader (Tecan, Switzerland).
# [3] = tested on: Detroit 562; experiment: Colony formation assay; type: cell-based, human; conditions: Detroit 562, 24 h treatment at IC50
# Protocol: (§1) Cells were seeded in six-well plates at a density of 100,000 cells per well (10,000 cells/200 μL) and grown for 24 h. […] Subsequently, cells were reseeded in new six-well plates at a density of 500 cells per well and grown for approximately 2 weeks. The cell culture medium was replaced every 2–3 days. When visible colonies appeared in the six-well plates, the culture was terminated, and the cells were washed twice with ice-cold PBS. The cells were then fixed with ice-cold methanol for 10 min and stained with 0.5% crystal violet solution for 30 min at room temperature. Experiments were performed in four independent replicates. The results were analyzed using the ImageJ plugin ColonyArea, which is optimized for standard analysis of colony formation assays. The plugin processes each well individually and determines not the number of colonies, but the area of the well covered by cells, also considering staining intensity.
# [4] = tested on: HGF; experiment: Colony formation assay; type: cell-based, human; conditions: 24 h treatment at IC50
# Protocol: as §1
# [5] = tested on: CAL 27; experiment: Colony formation assay; type: cell-based, human; conditions: CAL 27, 24 h treatment at IC50
# Protocol: as §1
# [6] = tested on: TR146; experiment: Colony formation assay; type: cell-based, human; conditions: TR146, 24 h treatment at IC50
# Protocol: as §1
# [7] = tested on: FaDu; experiment: Colony formation assay; type: cell-based, human; conditions: 24 h treatment at IC50
# Protocol: as §1
# [8] = target: T2, IL-6 (Homo sapiens, UniProt P05231); experiment: Sandwich ELISA assay IL-6; type: binding; conditions: 15 μM, 500 pg/mL IL-6
# T2 construct: purchased PeproTech, Thermo Fisher Scientific
# T2 sequence (P05231 30-212): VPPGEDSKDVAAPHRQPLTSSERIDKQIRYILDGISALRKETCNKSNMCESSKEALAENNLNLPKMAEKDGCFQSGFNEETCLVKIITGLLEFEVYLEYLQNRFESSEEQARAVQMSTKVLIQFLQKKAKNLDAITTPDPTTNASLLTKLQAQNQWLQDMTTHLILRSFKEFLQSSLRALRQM
# Protocol: Human ELISA kits for IL-6, IL-6R, and IL-8 (Sigma-Aldrich, Merck, Germany) were used to quantify cytokine levels after treatment with complex 3 or 4. Briefly, 96-well plates precoated with specific antibodies were used to capture IL-6, IL-6R, and IL-8 from samples. […] Each sample was supplemented with 500 pg/mL of IL-6/IL-6R/IL-8. Positive control wells contained only the IL-6/IL-6R/IL-8 standard (PeproTech, Thermo Fisher Scientific, Waltham, Massachusetts, USA). […] After incubation, wells were washed, and biotinylated antihuman antibodies were added, followed by washing and addition of HRP-conjugated streptavidin. Finally, the TMB substrate was added to develop a color proportional to the cytokine concentration, and the reaction was stopped with the stop solution. Absorbance was measured at 450 nm using an […] 200 PRO microplate reader (TECAN, Switzerland).
Compound,Cytotoxicity in THP1-Blue NF-κB cells (MTT) [1],"Reduction of NF-κB (p65) levels ([2]; 1 μM, cellular extracts of THP1-Blue NF-κB cells, LPS)",NF-κB (p65) detected in cellular extracts ([2]; 8 μM),Cloning efficiency (%) [3] [%],Cloning efficiency (%) [4] [%],Cloning efficiency (%) [5] [%],Cloning efficiency (%) [6] [%],Cloning efficiency (%) [7] [%],Decrease of IL-6 concentration [8]
Cc1ccc(C(C)C)cc1.Cc1ccc(C(C)C)cc1.O=C1C(=Cc2ccnc3ccccc23)COCC1=Cc1ccnc2ccccc12.[Cl][Ru][Cl].[Cl][Ru][Cl] [Complex 3],"Neither complex 3, complex 4, nor curcumin exhibited significant cytotoxicity",approximately 70%,less than 5%,57 ± 8,95 ± 6,39 ± 7,66 ± 19,73 ± 15,
Cc1ccc(C(C)C)cc1.Cc1ccc(C(C)C)cc1.O=C1C(=Cc2cccnc2)CCC1=Cc1cccnc1.[Cl][Ru][Cl].[Cl][Ru][Cl] [Complex 4],"Neither complex 3, complex 4, nor curcumin exhibited significant cytotoxicity",,,,,,,,approximately 30%
